Experimental data published in patent US9073855B2, “BCL-2 selective apoptosis-inducing agents for the treatment of cancer and immune diseases” (AbbVie Inc., priority 2008, dated 2015).

Experiments:
GST-Bcl-XL = GST-Bcl-XL (Homo sapiens, UniProt Q07817); experiment: TR-FRET binding assay, GST-Bcl-XL with F-Bak peptide probe; conditions: TR-FRET Binding Affinity, GST-Bcl-XL, F-Bak peptide probe
Summary of the method: (§1)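 Displacement of a fluorescein-labelled Bak peptide from the GST-tagged protein was followed by time-resolved FRET with a terbium anti-GST donor after 3 h incubation at room temperature. Inhibition constants were calculated with Wang's equation.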

GST-Bcl-2 = GST-Bcl-2 (Homo sapiens, UniProt P10415); experiment: TR-FRET binding assay, GST-Bcl-2 with F-Bak peptide probe; conditions: TR-FRET Binding Affinity, GST-Bcl-2, F-Bak peptide probe
Summary of the method: as §1

FL5.12/Bcl-2 cells = experiment: FL5.12/Bcl-2 cell viability assay under IL-3 withdrawal (CellTitre Glo); type: cell-based, murine; conditions: Mus musculus, IL-3 withdrawn 48 hrs, then 24 hrs with compound
Description: FL5.12 is an IL-3 dependent prolymphocytic murine cell line that undergoes apoptosis upon IL-3 withdrawal as a result of the upregulation of pro-apoptotic Bcl-2 proteins such as Bim and Puma. Stable overexpression of anti-apoptotic Bcl-2 protein (FL5.12/Bcl-2) protects against apoptosis induced by IL-3 withdrawal by sequestration of Bim and Puma. […] The ability of compounds to kill FL5.12/Bcl-2 cells upon IL-3 withdrawal is a direct measure of the compounds' ability to inhibit anti-apoptotic Bcl-2 protein function.
Wild type FL5.12/Bcl-2 overexpressing stable transfectants were cultured in RPMI-1640 supplemented with 2 mM L-glutamine, 10% FBS, 1 mM sodium pyruvate, 2 mM HEPES, 1% penicillin/streptomycin (Invitrogen), 57 μM β-ME, and 10% WEHI-3B conditioned medium (source of IL-3) and maintained at 37° C. containing 5% CO2. 1×10^6 cells/ml were washed 1×PBS and resuspended in medium not supplemented with 10% WEHI-3B for 48 hrs prior to cytotoxicity assays. Cells were then treated for an additional 24 hrs in the presence of various concentrations of the indicated compounds. Cell viability was assessed by CellTitre Glo assay (Promega Corp.) according to the manufacturer's recommendations.

GST-Bcl-XL, sequence (Q07817 whole entry): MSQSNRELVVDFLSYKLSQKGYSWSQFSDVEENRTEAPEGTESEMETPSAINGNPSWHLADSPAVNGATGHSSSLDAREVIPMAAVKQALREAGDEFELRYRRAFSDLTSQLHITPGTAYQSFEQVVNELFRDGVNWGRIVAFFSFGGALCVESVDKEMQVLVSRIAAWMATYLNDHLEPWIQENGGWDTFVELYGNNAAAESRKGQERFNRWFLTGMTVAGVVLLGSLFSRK
GST-Bcl-2, sequence (P10415 whole entry): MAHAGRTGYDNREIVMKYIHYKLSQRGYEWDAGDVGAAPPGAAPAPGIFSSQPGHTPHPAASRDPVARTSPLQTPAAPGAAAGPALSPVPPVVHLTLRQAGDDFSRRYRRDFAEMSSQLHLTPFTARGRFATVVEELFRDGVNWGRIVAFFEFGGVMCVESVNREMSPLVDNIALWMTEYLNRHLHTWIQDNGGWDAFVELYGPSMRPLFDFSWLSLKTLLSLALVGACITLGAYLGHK

Row | Compound | Ki (GST-Bcl-XL) [nM] | Ki (GST-Bcl-2) [nM] | EC50 (FL5.12/Bcl-2 cells) [nM]
1 | CC1(C)CCC(CN2CCN(c3ccc(C(=O)NS(=O)(=O)c4ccc(NCC5CCOCC5)c(C#N)c4)c(Oc4cccc5[nH]ccc45)c3)CC2)=C(c2ccc(Cl)cc2)C1 [Example 366, 4-(4-{[2-(4-chlorophenyl)-4,4-dimethylcyclohex-1-en-1-yl]methyl}piperazin-1-yl)-N-({3-cyano-4-[(tetrahydro-2H-pyran-4-ylmethyl)amino]phenyl}sulfonyl)-2-(1H-indol-4-yloxy)benzamide] | > 660 | 5.46 | > 500
2 | CC(C1=C(c2ccc(Cl)cc2)CC(C)(C)CC1)N1CCN(c2ccc(C(=O)NS(=O)(=O)c3ccc(NCC4CCOCC4)c([N+](=O)[O-])c3)c(Oc3ccc4[nH]ccc4c3)c2)CC1 (stereo not drawn) [Example 253, 4-(4-{1-[2-(4-chlorophenyl)-4,4-dimethylcyclohex-1-en-1-yl]ethyl}piperazin-1-yl)-2-(1H-indol-5-yloxy)-N-({3-nitro-4-[(tetrahydro-2H-pyran-4-ylmethyl)amino]phenyl}sulfonyl)benzamide] | > 660 | 0.142 | 7.58
3 | CC(C)n1cc(CN2CCN(c3ccc(C(=O)NS(=O)(=O)c4ccc(NCC5CCOCC5)c([N+](=O)[O-])c4)c(Oc4ccc5[nH]ccc5c4)c3)CC2)c(-c2ccc(Cl)cc2)cc1=O [Example 307, 4-(4-{[4-(4-chlorophenyl)-1-isopropyl-6-oxo-1,6-dihydropyridin-3-yl]methyl}piperazin-1-yl)-2-(1H-indol-5-yloxy)-N-({3-nitro-4-[(tetrahydro-2H-pyran-4-ylmethyl)amino]phenyl}sulfonyl)benzamide] | > 660 | 3.73 | > 500
4 | CN1CCN(Nc2ccc(S(=O)(=O)NC(=O)c3ccc(N4CCN(CC5=C(c6ccc(Cl)cc6)CC(C)(C)CC5)CC4)cc3Oc3ccc4[nH]ccc4c3)cc2S(=O)(=O)C(F)(F)F)CC1 [Example 220, 4-(4-{[2-(4-chlorophenyl)-4,4-dimethylcyclohex-1-en-1-yl]methyl}piperazin-1-yl)-2-(1H-indol-5-yloxy)-N-({4-[(4-methylpiperazin-1-yl)amino]-3-[(trifluoromethyl)sulfonyl]phenyl}sulfonyl)benzamide] | 31.4 | 0.192 | 24
5 | CC1(C)CCC(CN2CCN(c3ccc(C(=O)NS(=O)(=O)c4ccc(NC5CCN(CCCC(F)(F)F)CC5)c([N+](=O)[O-])c4)c(Oc4ccc5[nH]ccc5c4)c3)CC2)=C(c2ccc(Cl)cc2)C1 [Example 216, 4-(4-{[2-(4-chlorophenyl)-4,4-dimethylcyclohex-1-en-1-yl]methyl}piperazin-1-yl)-2-(1H-indol-5-yloxy)-N-[(3-nitro-4-{[1-(4,4,4-trifluorobutyl)piperidin-4-yl]amino}phenyl)sulfonyl]benzamide] | > 660 | 0.615 | 39.8
6 | CCN(CC)C1CCC(Nc2ccc(S(=O)(=O)NC(=O)c3ccc(N4CCN(CC5=C(c6ccc(Cl)cc6)CC(C)(C)CC5)CC4)cc3Oc3cccc4[nH]ccc34)cc2[N+](=O)[O-])CC1 (stereo not drawn) [Example 203, 4-(4-{[2-(4-chlorophenyl)-4,4-dimethylcyclohex-1-en-1-yl]methyl}piperazin-1-yl)-N-[(4-{[4-(diethylamino)cyclohexyl]amino}-3-nitrophenyl)sulfonyl]-2-(1H-indol-4-yloxy)benzamide] | 4.3 | 0.031 | 22.3
7 | CC1(C)CCC(CN2CCN(c3ccc(C(=O)NS(=O)(=O)c4cnc(OCC5CCOCC5)c(C#N)c4)c(Oc4cccc5[nH]ccc45)c3)CC2)=C(c2ccc(Cl)cc2)C1 [Example 386, 4-(4-{[2-(4-chlorophenyl)-4,4-dimethylcyclohex-1-en-1-yl]methyl}piperazin-1-yl)-N-{[5-cyano-6-(tetrahydro-2H-pyran-4-ylmethoxy)pyridin-3-yl]sulfonyl}-2-(1H-indol-4-yloxy)benzamide] | 118 | 0.239 | 154
